In patent publication US20020028479A1, “Methods for the detection of fungal growth” (priority 2000, published 2002):

Assays:
[1] = tested on: Aspergillus nidulans 200092; assay: MTS/MEN growth inhibition assay, OD490;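 note: fungal spore suspensions in 96-well plates with MTS/MEN indicator, absorbance read after 2 h and again after further development up to 24 h, controls containing medium only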
Procedure: Spores from a frozen stock of Aspergillus nidulans 200092 (at 1.63×10^7/ml) were diluted to 5×10^3/ml to yield 500 spores per well in yeast extract with glucose broth supplemented with lysine and uridine.
MEN was added at a ratio of 42 μl MEN per 12 ml of MTS. Each well received 25 μl indicator.
98 μl of the spore suspension was added to the wells of a 96 well plate. Control wells received media only. […] Plates were then incubated for 2 hours and then read at OD490. MTS/MEN was then allowed to develop for an additional period of time up to 24 hours and the plates was re-read.

A. nidulans 200092 = assay: Spore germination with indicator/electron donor added at T0, viewed microscopically; format: cell-based; conditions: added at the same time as spores (T0), no viability at 48 hours
Procedure: Spores from a frozen stock of A. nidulans 200092 at 1.63×10^7/ml) were diluted to 5×10^3/ml to yield 500 spores per well in yeast extract with glucose broth supplemented with lysine and uridine.
Tetrazolium salts (listed in Table 1) were each dissolved to 1 mg/ml in phosphate-buffered saline (PBS) or water, aliquotted, and frozen. Electron coupling agents phenazine methosulfate (PMS; lot 194-03) and menadione (MEN; lot 170-95) were prepared at 5 mM in PBS and 10 mM in acetone, respectively. Cultures had no electron coupling reagent added, PMS (120 μl of PMS per 12 ml of tetrazolium salt) or MEN (42 μl per 12 ml of tetrazolium salt). Each well received 25 μl of indicator.
Indicator (with or without electron coupling reagent) was added at the same time as spores (T0), following ˜24 hours of incubation (T24), or following ˜48 hours of incubation (T48). Wells were viewed ˜2 hours post addition. NC denotes no color seen.
Microscopically, when compared to wells that had no indicator added or had PMS added, it was evident that the spores were present but had not germinated. At 48 hours, these same wells still had not shown any signs of viability.

[2] = Aspergillus nidulans, 200092, 2 h
[3] = Aspergillus nidulans, 200092, 24 h

**Q.** Which IC50 [1, 2] does the source give for C[n+]1cc2c3c(ccc2c2ccc4cc5c(cc4c21)OCO5)OCO3 [Sanguinarine, sanguinarine] here?
**A.** 1.42 µg/mL

**Q.** What about the inhibition at 0.0061 µg/mL [1, 2] of the same compound?
**A.** 16.2%

**Q.** And the inhibition at 0.0122 µg/mL [1, 2]?
**A.** -3.1%

**Q.** And the inhibition at 0.0244 µg/mL [1, 2]?
**A.** 15.6%

**Q.** And the inhibition at 0.0488 µg/mL [1, 2]?
**A.** 15.7%

**Q.** And the inhibition at 0.0977 µg/mL [1, 2]?
**A.** 42.9%

**Q.** And the inhibition at 0.1953 µg/mL [1, 2]?
**A.** 10.2%

**Q.** And the inhibition at 0.3906 µg/mL [1, 2]?
**A.** 33.8%

**Q.** What about the inhibition at 0.7813 µg/mL [1, 2] of the same compound?
**A.** 45%

**Q.** And the inhibition at 1.5625 µg/mL [1, 2]?
**A.** 49.6%

**Q.** What about the inhibition at 3.125 µg/mL [1, 2] of the same compound?
**A.** 50.8%

**Q.** And the inhibition at 6.25 µg/mL [1, 2]?
**A.** 86.9%

**Q.** What about the inhibition at 12.5 µg/mL [1, 2] of the same compound?
**A.** 89.4%

**Q.** And the inhibition at 25 µg/mL [1, 2]?
**A.** 88.4%

**Q.** What about the inhibition at 50 µg/mL [1, 2] of the same compound?
**A.** 77.3%

**Q.** What about the inhibition at 100 µg/mL [1, 2] of the same compound?
**A.** 53.3%

**Q.** And the inhibition at 200 µg/mL [1, 2]?
**A.** 7%

**Q.** What about the IC50 [1, 3] of the same compound?
**A.** 2.77 µg/mL

**Q.** And the inhibition at 0.0061 µg/mL [1, 3]?
**A.** 10.9%

**Q.** What about the inhibition at 0.0122 µg/mL [1, 3] of the same compound?
**A.** -1.7%

**Q.** What about the inhibition at 0.0244 µg/mL [1, 3] of the same compound?
**A.** 5.1%

**Q.** What about the inhibition at 0.0488 µg/mL [1, 3] of the same compound?
**A.** 7.9%

**Q.** And the inhibition at 0.0977 µg/mL [1, 3]?
**A.** 18.4%

**Q.** And the inhibition at 0.1953 µg/mL [1, 3]?
**A.** -2.4%

**Q.** And the inhibition at 0.3906 µg/mL [1, 3]?
**A.** 12.6%

**Q.** What about the inhibition at 0.7813 µg/mL [1, 3] of the same compound?
**A.** 19.7%

**Q.** And the inhibition at 1.5625 µg/mL [1, 3]?
**A.** 39.8%

**Q.** What about the inhibition at 3.125 µg/mL [1, 3] of the same compound?
**A.** 42.2%

**Q.** And the inhibition at 6.25 µg/mL [1, 3]?
**A.** 86.7%

**Q.** And the inhibition at 12.5 µg/mL [1, 3]?
**A.** 93.7%

**Q.** What about the inhibition at 25 µg/mL [1, 3] of the same compound?
**A.** 92.4%

**Q.** And the inhibition at 50 µg/mL [1, 3]?
**A.** 91.7%

**Q.** What about the inhibition at 100 µg/mL [1, 3] of the same compound?
**A.** 87.5%

**Q.** What about the inhibition at 200 µg/mL [1, 3] of the same compound?
**A.** 79.5%

**Q.** For CC1=CC(=O)c2ccccc2C1=O [MEN, menadione], which “germination or growth of the spores” value (A. nidulans 200092) is on record?
**A.** inhibit germination or growth of the spores

**Q.** For COc1cc(-c2ccc(-[n+]3nc(-c4ccc([N+](=O)[O-])cc4)nn3-c3ccc([N+](=O)[O-])cc3)c(OC)c2)ccc1-[n+]1nc(-c2ccc([N+](=O)[O-])cc2)nn1-c1ccc([N+](=O)[O-])cc1.[Cl-].[Cl-] [TNTB, Tetranitro Blue Tetrazolium], which “germination or growth of the spores” value (A. nidulans 200092) is on record?
**A.** inhibit germination or growth of the spores

**Q.** With O=[N+]([O-])c1ccc(-[n+]2nc(-c3ccccc3)nn2-c2ccc(I)cc2)cc1.[Cl-] [INT, p-Iodonitrotetrazolium Violet] as the compound, how does the “germination or growth of the spores” value (A. nidulans 200092) read?
**A.** inhibit germination or growth of the spores

**Q.** COc1cc(-c2ccc(-n3nc(-c4ccccc4)n[n+]3-c3ccccc3)c(OC)c2)ccc1-n1nc(-c2ccccc2)n[n+]1-c1ccccc1 [BT, Tetrazolium Blue Chloride] was tested. Which “germination or growth of the spores” value (A. nidulans 200092) did it give?
**A.** inhibit germination or growth of the spores

**Q.** For c1ccc(-c2nn(-c3ccccc3)[n+](-c3cccc4ccccc34)n2)cc1 [TV, Tetrazolium Violet], which “germination or growth of the spores” value (A. nidulans 200092) is on record?
**A.** inhibit germination or growth of the spores

**Q.** Clc1ccccc1C(c1ccccc1)(c1ccccc1)n1ccnc1 [Clotrimazole, clotrimazole] was tested. Which inhibition at 0.0039 µg/mL [1, 2] did it give?
**A.** 15.8%

**Q.** What about the inhibition at 0.0078 µg/mL [1, 2] of the same compound?
**A.** 35.4%

**Q.** And the inhibition at 0.0156 µg/mL [1, 2]?
**A.** 26%

**Q.** What about the inhibition at 0.0313 µg/mL [1, 2] of the same compound?
**A.** 56.8%

**Q.** And the inhibition at 0.0625 µg/mL [1, 2]?
**A.** 86.5%

**Q.** And the inhibition at 0.125 µg/mL [1, 2]?
**A.** 94.6%

**Q.** What about the inhibition at 0.25 µg/mL [1, 2] of the same compound?
**A.** 93%

**Q.** What about the inhibition at 0.5 µg/mL [1, 2] of the same compound?
**A.** 93%

**Q.** What about the inhibition at 1 µg/mL [1, 2] of the same compound?
**A.** 94.5%

**Q.** What about the inhibition at 2 µg/mL [1, 2] of the same compound?
**A.** 93.4%

**Q.** What about the inhibition at 4 µg/mL [1, 2] of the same compound?
**A.** 95.8%

**Q.** What about the inhibition at 8 µg/mL [1, 2] of the same compound?
**A.** 94.4%

**Q.** What about the inhibition at 16 µg/mL [1, 2] of the same compound?
**A.** 94.4%

**Q.** What about the inhibition at 32 µg/mL [1, 2] of the same compound?
**A.** 91.5%

**Q.** What about the inhibition at 64 µg/mL [1, 2] of the same compound?
**A.** 86%

**Q.** And the inhibition at 0.0039 µg/mL [1, 3]?
**A.** 6.6%

**Q.** And the inhibition at 0.0078 µg/mL [1, 3]?
**A.** 48.5%

**Q.** And the inhibition at 0.0156 µg/mL [1, 3]?
**A.** 47.2%

**Q.** What about the inhibition at 0.0313 µg/mL [1, 3] of the same compound?
**A.** 70.1%

**Q.** What about the inhibition at 0.0625 µg/mL [1, 3] of the same compound?
**A.** 77%

**Q.** What about the inhibition at 0.125 µg/mL [1, 3] of the same compound?
**A.** 93.6%

**Q.** What about the inhibition at 0.25 µg/mL [1, 3] of the same compound?
**A.** 91.6%

**Q.** What about the inhibition at 0.5 µg/mL [1, 3] of the same compound?
**A.** 92%

**Q.** And the inhibition at 1 µg/mL [1, 3]?
**A.** 93.9%

**Q.** What about the inhibition at 2 µg/mL [1, 3] of the same compound?
**A.** 92.3%

**Q.** And the inhibition at 4 µg/mL [1, 3]?
**A.** 96.2%

**Q.** What about the inhibition at 8 µg/mL [1, 3] of the same compound?
**A.** 94.2%

**Q.** And the inhibition at 16 µg/mL [1, 3]?
**A.** 93.4%

**Q.** What about the inhibition at 32 µg/mL [1, 3] of the same compound?
**A.** 92.1%

**Q.** And the inhibition at 64 µg/mL [1, 3]?
**A.** 91.9%
